Measured values as given in article PMC12040169 (PLOS Biology, 2025).

Experiment: in vitro
Settings: human, hela cells

| SMILES | viability at 28.5 h, 10 µM (% viability) [%] | viability at 28.5 h, 10 µM [%] |
| --- | --- | --- |
| COCC1CCCN1C(=O)c1cnn2c(C)c(Cc3ccccc3)c(C)nc12 (centres unmarked) [CBK162213] | 93.9 | – |
| COCCCNC(=O)c1cnn2c(C)c(Cc3ccccc3)c(C)nc12 [CBK162216] | 94.6 | – |
| CS(=O)(=O)c1ccc(-c2ccc(COC3CCN(C(=O)CCCc4ccc(F)cc4)CC3)cn2)cc1 [CBK162229T] | 91.6 | – |
| CS(=O)(=O)c1ccc(-c2ccc(COC3CCN(C(=O)Cc4cccc(C(F)(F)F)c4)CC3)cn2)cc1 [CBK162231T] | 102 | – |
| COc1ccc(C(=O)CN2CCC3(CC2)CC(=O)c2cc(Br)ccc2O3)cc1 [CBK162265] | 114 | – |
| CS(=O)(=O)c1ccc(-c2ccc(OCC3CCN(C(=O)c4cccc(C#N)c4)CC3)nc2)cc1 [CBK162283] | 93.3 | – |
| O=C(Nc1ccc2c(c1)OCCO2)N1CCN(c2cc(C(F)(F)F)ccn2)CC1 [CBK162331] | 99.4 | – |
| COc1ccc(CNC(=O)N2CCN(c3cc(C(F)(F)F)ccn3)CC2)cc1OC [CBK162344] | 82.5 | – |
| COc1cc(NC(=O)N2CCN(c3cc(C(F)(F)F)ccn3)CC2)cc(OC)c1OC [CBK162349] | 95.2 | – |
| O=C1C2CCCCN2C(=O)N1c1cccnc1 (centres unmarked) [CBK162359] | 114 | – |
| CSCCCN1C(=O)CN(Cc2ccccc2)C1=O [CBK162363] | 91.4 | – |
| O=C1CN(Cc2ccccc2)C(=O)N1CC1CCCCC1 [CBK162367] | 93.7 | – |
| COCCN1C(=O)CN(Cc2ccccc2)C1=O [CBK162369] | 95.1 | – |
| CS(=O)(=O)c1ccc(-c2ccc(CN3CCN(C(=O)Cc4ccc(F)cc4F)CC3)cn2)cc1 [CBK162618T] | 122 | – |
| Cc1ccc(S(=O)(=O)N(Cc2c(F)cccc2F)C2CCNCC2)cc1 [CBK163927T] | 89.9 | – |
| CCCCc1ccc(N)c(C)c1 [CBK164057C] | 89.9 | – |
| CN(Cc1ccc(-c2ccc(S(C)(=O)=O)cc2)nc1)C1CCN(C(=O)c2ccc(Cl)c(Cl)c2)CC1 [CBK164101T] | 104 | – |
| CN(Cc1ccc(-c2ccc(S(C)(=O)=O)cc2)nc1)C1CCN(C(=O)CC2CCCCC2)CC1 [CBK164105T] | 92.6 | – |
| O=C(N1CCC(Oc2nccnc2OCc2ccc(Cl)cc2F)CC1)C(F)(F)F [CBK164142] | 89.5 | – |
| COc1cc(C(=O)N2CCC3(CC2)CC(=O)c2cc(C)c(C)cc2O3)ccc1C [CBK164202] | 105 | – |
| O=C(c1n[nH]nc1-c1ccccc1)N1CCCC(C(F)(F)F)C1 (centres unmarked) [CBK164228] | 96.1 | – |
| COc1cc(OC)cc(C(=O)N2CCC3(CC2)CC(=O)c2c(OC)cc(OC)cc2O3)c1 [CBK164233] | 105 | – |
| COc1ccc(CCNC(=O)c2cnc(-c3ccc(Cl)cc3)c(-c3cccc(CNC(C)=O)c3)c2)cc1OC [CBK164413] | 95 | – |
| CCCN(C)Cc1ccc(-c2nnn(CC(=O)NCc3ccc(CC)cc3)n2)cc1NC(C)=O [CBK164703] | 105 | – |
| CCCN(C)Cc1ccc(-c2cn(CC(=O)NCc3ccc(C(F)(F)F)cc3)nn2)cc1 [CBK164719] | 92.9 | – |
| Cc1c(S(=O)(=O)N2CCC(N)C2)sc2ccc(Cl)cc12 (centres unmarked) [CBK164970] | 89.3 | – |
| CC(C)(C)c1ccc(N(C2CCNCC2)S(=O)(=O)c2cccc(C(F)(F)F)c2)cc1 [CBK165056T] | 114 | – |

| SMILES | viability at 28.5 h, 10 µM (% viability) [%] | viability at 28.5 h, 10 µM [%] |
| --- | --- | --- |
| CC(C)(C)c1ccc(N(C2CCNCC2)S(=O)(=O)c2ccc(Cl)cc2Cl)cc1 [CBK165067T] | 51 | – |
| Cc1ccccc1S(=O)(=O)N(c1ccc(C(C)(C)C)cc1)C1CCNCC1 [CBK165074T] | 97.8 | – |
| COc1ccc(S(=O)(=O)N(c2ccccc2)C2CCNCC2)cc1OC [CBK165076T] | 73.9 | – |
| CC(C)c1ccc(S(=O)(=O)N(c2ccccc2)C2CCNCC2)cc1 [CBK165088T] | 108 | – |
| CCCc1ccc(S(=O)(=O)N(c2ccccc2)C2CCNCC2)cc1 [CBK165121T] | 108 | – |
| COc1cccc(OCc2cnc(-c3ccc(Cl)cc3)c(-c3cccc(CNC(C)=O)c3)c2)c1 [CBK165225] | 90.5 | – |
| COCCOC(=O)N1CCC(N(C)Cc2ccc(-c3ccc(S(C)(=O)=O)cc3)nc2)CC1 [CBK165258T] | 96.7 | – |
| CC(=O)OCC(=O)N1CCC(N(C)Cc2ccc(-c3ccc(S(C)(=O)=O)cc3)nc2)CC1 [CBK165268] | 116 | – |
| CC(C)OC(=O)N1CCC(CNc2ncc(-c3ccc(S(C)(=O)=O)cc3)cn2)CC1 [CBK165367] | 99.1 | – |
| CC(C)OC(=O)N1CCC(N(C)Cc2ccc(-c3ccc(S(C)(=O)=O)cc3)cn2)CC1 [CBK165581T] | 90.8 | – |
| CN(Cc1ccc(-c2ccc(S(C)(=O)=O)cc2)cn1)C1CCN(C(=O)CC(C)(C)O)CC1 [CBK165684T] | 93.1 | – |
| CCc1nc2c(C(=O)NCCNC(C)=O)cnn2c(CC)c1Cc1ccc(Cl)cc1 [CBK165730] | 86 | – |
| O=C(Cn1cc(-c2ccc(CN3CCOCC3)cc2)nn1)NCc1cccc(C(F)(F)F)c1 [CBK165803] | 87.5 | – |
| COc1ccc(C(=O)N2CCC(N(C)Cc3ccc(-c4ccc(S(C)(=O)=O)cc4)nc3)CC2)cc1Cl [CBK165991T] | 95.8 | – |
| Cc1ccc2c(c1)OC1(CCN(C(=O)c3cc4c(C)nn(C)c4s3)CC1)CC2=O [CBK166037] | 79.5 | – |
| COc1cc(C(=O)N2CCC3(CC2)CC(=O)c2ccc(C)cc2O3)ccc1O [CBK166045] | 86.6 | – |
| CN(CC1CCN(C(=O)OC(C)(C)C)CC1)c1ccnc(-c2ccncc2)n1 [CBK166064] | 101 | – |
| [2H]C(C(=O)NCc1ccc2c(c1)CCC2)n1cc(-c2ccc(CN3CCC(C)CC3)cc2)nn1 (centres unmarked) [CBK166081-L1] | 97.7 | – |
| CC(C)Nc1nc2ccccc2nc1OCc1ccc(C2CC2C(=O)N(C)C)cc1 (centres unmarked) [CBK166091] | 92.5 | – |
| CN(Cc1ccc(-c2ccc(S(C)(=O)=O)cc2)nc1)C1CCN(C(=O)Oc2ccc(F)cc2)CC1 [CBK166097] | – | 91.5 |
| CC1CCN(Cc2ccc(-c3ccc(CNC(=O)c4ccc5c(c4)OC(F)(F)O5)s3)cc2)CC1 [CBK166113] | 107 | – |
| CCOc1cc(OCC)cc(C(=O)N2CCC3(CC2)NC(=O)c2ccc(C)cc2O3)c1 [CBK166215] | 117 | – |
| COc1cc(C(=O)N2CCC3(CC2)NC(=O)c2cc(C)ccc2O3)cc(OC)c1C [CBK166273] | 91 | – |
| COc1cc(C(=O)N2CCC3(CC2)NC(=O)c2cc(C)ccc2O3)ccc1C [CBK166276] | 108 | – |
| COc1ccc(C(=O)N2CCC3(CC2)NC(=O)c2cc(C)ccc2O3)cc1C [CBK166277] | 89 | – |
| CCOc1cc(OCC)cc(C(=O)N2CCC3(CC2)NC(=O)c2cc(I)ccc2O3)c1 [CBK166301] | 94.1 | – |
| COc1cc(OC)cc(C(=O)N2CCC3(CC2)NC(=O)c2ccc(OC)cc2O3)c1 [CBK166328] | 106 | – |

| SMILES | viability at 28.5 h, 10 µM (% viability) [%] | viability at 28.5 h, 10 µM [%] |
| --- | --- | --- |
| COc1ccc(C)cc1NC(=O)N1CCC2(CC1)CC(=O)c1ccc(C)cc1O2 [CBK166520] | 91.4 | – |
| Cc1nc2c(C(=O)NCCOCCO)cnn2c(C)c1Cc1ccc(F)c(Cl)c1 [CBK167457] | 96.3 | – |
| O=C(Cn1cc(-c2ccc(CN3CCCCC3)cc2)nn1)NCc1ccc(OC(F)F)cc1 [CBK167514] | 96 | – |
| CC1CCN(Cc2ccc(-c3cn(CC(=O)NCc4ccc(OC(F)(F)F)c(F)c4)nn3)cc2)CC1 [CBK167536] | 87.3 | – |
| O=C(Cn1cc(-c2ccc(CN3CCCCC3)cc2)nn1)NCc1ccc(C2CCC2)cc1 [CBK167547] | 86.6 | – |
| CCc1ccc(CNC(=O)Cn2cc(-c3ccc(CN4CCC(CO)CC4)cc3)nn2)cc1 [CBK167551] | 105 | – |
| O=C(Cn1cc(-c2ccc(CN3CCCCC3)cc2)nn1)NCc1ccc(Cl)cc1Cl [CBK167689] | 83.2 | – |
| Cc1c(S(=O)(=O)Nc2cccc(C(=O)OCC3CCCN(C)C3)c2)sc2ccc(Cl)cc12 (centres unmarked) [CBK167735G] | 109 | – |
| COc1cc(C(=O)N2CCC3(CC2)CC(=O)c2cc(C)ccc2O3)cc(OC)c1C [CBK167805] | 99.6 | – |
| CC(C)(C)OC(=O)N1CCC(COc2ccc(-c3ccc(S(C)(=O)=O)cc3)nc2)CC1 [CBK167839] | 108 | – |
| Cc1ccc2c(c1)OC1(CCN(C(=O)c3c(-c4ccccc4)nc4ccccn34)CC1)CC2=O [CBK167871] | 92.9 | – |
| CCOc1cc(OCC)cc(C(=O)N2CCC3(CC2)CC(=O)c2c(OC)cccc2O3)c1 [CBK168012] | 108 | – |
| CCOc1cc(OCC)cc(C(=O)N2CCC3(CC2)CC(=O)c2ccc(OCC)cc2O3)c1 [CBK168014] | 98.8 | – |
| CCOc1cc(OCC)cc(C(=O)N2CCCC3(CC(=O)c4ccc(C)cc4O3)C2)c1 (centres unmarked) [CBK168067] | 93.9 | – |
| COc1cc(OC)cc(C(=O)N2CCC3(CC2)CC(=O)c2cc(F)cc(F)c2O3)c1 [CBK168089] | 108 | – |
| CCOc1cc(OCC)cc(C(=O)N2CCCC3(CC2)CC(=O)c2ccc(C)cc2O3)c1 (centres unmarked) [CBK168241] | 98.2 | – |
| O=C(NC1CCNCC1)c1cc2ccccc2[nH]1 [CBK168609] | 84.6 | – |
| CON=Cc1c[nH]c2ccccc12 [CBK168628] | 93.7 | – |
| C(=N/OCc1ccccc1)/c1c[nH]c2ccccc12 [CBK168629] | 79.3 | – |
| CN1CCC(NC(=O)c2cc3ccccc3[nH]2)CC1 [CBK168633] | 88.3 | – |
| CC12CCCN1CCCN2C(=O)c1c[nH]c2ccccc12 (centres unmarked) [CBK169228] | 87.2 | – |
| CC(C)(C)COC(=O)N1CCC(N2CCOc3ccc(-c4ccc(S(C)(=O)=O)cc4)cc3C2)CC1 [CBK169264] | 83 | – |
| CS(=O)(=O)c1ccc(-c2ccc3c(n2)CCN(C2CCN(C(=O)OCc4ccccc4)CC2)C3)cc1 [CBK169530] | 81.8 | – |
| COc1cc(C(=O)N2CCC3(CC2)CC(=O)c2cc(-c4cccnc4)ccc2O3)cc(OC)c1C [CBK169606] | 112 | – |
| CN(C)C1CCN(C(=O)c2ccc(-c3cnc(OCC4CCN(C(=O)OC(C)(C)C)CC4)nc3)cc2)C1 (centres unmarked) [CBK169767] | 113 | – |
| CN1CCN(C(=O)c2ccc(-c3cnc(OCC4CCN(C(=O)OC(C)(C)C)CC4)nc3)cn2)CC1 [CBK170021] | 93.5 | – |
